Results: the NIST ThermoML archive (doi:10.1021/acs.jced.6b00121)
Numbers after ± are expanded uncertainties.

Assay: xn = mol fraction of the nth substance listed
Details: 100 kPa, Liquid; for viscosity: Falling or rolling sphere viscometry; for mass density: Vibrating tube method

Question: Which viscosity (303.15 K, x1 = 0.6004) does the source give for `CCCCCCCCCCC` [undecane] + CCCCCCO here?
Answer: The viscosity was 1.305 ± 0.017 mPa·s.

Question: And the viscosity (303.15 K, x1 = 0.6989)?
Answer: Its viscosity is 1.176 ± 0.016 mPa·s.

Question: What about the viscosity (303.15 K, x1 = 0.8001) of the same compound?
Answer: The viscosity was 1.09 ± 0.015 mPa·s.

Question: What about the viscosity (303.15 K, x1 = 0.8991) of the same compound?
Answer: The viscosity was 1.031 ± 0.014 mPa·s.

Question: And the viscosity (303.15 K, x1 = 1)?
Answer: The viscosity was 0.982 ± 0.013 mPa·s.

Question: And the mass density (303.15 K, x1 = 0.1011)?
Answer: Its mass density is 798.47 ± 1.6 kg/m3.

Question: And the mass density (303.15 K, x1 = 0.1989)?
Answer: Its mass density is 787.52 ± 1.6 kg/m3.

Question: What about the mass density (303.15 K, x1 = 0.2998) of the same compound?
Answer: The mass density was 777.45 ± 1.6 kg/m3.

Question: What about the mass density (303.15 K, x1 = 0.4001) of the same compound?
Answer: The mass density was 768.67 ± 1.6 kg/m3.

Question: What about the mass density (303.15 K, x1 = 0.4994) of the same compound?
Answer: The mass density was 761.01 ± 1.5 kg/m3.

Question: And the mass density (303.15 K, x1 = 0.6004)?
Answer: Its mass density is 753.98 ± 1.5 kg/m3.

Question: And the mass density (303.15 K, x1 = 0.6989)?
Answer: The mass density was 747.89 ± 1.5 kg/m3.

Question: What about the mass density (303.15 K, x1 = 0.8001) of the same compound?
Answer: Its mass density is 742.27 ± 1.5 kg/m3.

Question: What about the mass density (303.15 K, x1 = 0.8991) of the same compound?
Answer: The mass density was 737.38 ± 1.5 kg/m3.

Question: And the mass density (303.15 K, x1 = 1)?
Answer: Its mass density is 732.93 ± 1.5 kg/m3.

Question: What about the viscosity (308.15 K, x1 = 0.1011) of the same compound?
Answer: The viscosity was 2.62 ± 0.036 mPa·s.

Question: And the viscosity (308.15 K, x1 = 0.1989)?
Answer: The viscosity was 2.09 ± 0.028 mPa·s.

Question: What about the viscosity (308.15 K, x1 = 0.2998) of the same compound?
Answer: The viscosity was 1.746 ± 0.023 mPa·s.

Question: And the viscosity (308.15 K, x1 = 0.4001)?
Answer: Its viscosity is 1.517 ± 0.02 mPa·s.

Question: What about the viscosity (308.15 K, x1 = 0.4994) of the same compound?
Answer: Its viscosity is 1.334 ± 0.018 mPa·s.

Question: What about the viscosity (308.15 K, x1 = 0.6004) of the same compound?
Answer: Its viscosity is 1.193 ± 0.016 mPa·s.

Question: And the viscosity (308.15 K, x1 = 0.6989)?
Answer: The viscosity was 1.08 ± 0.014 mPa·s.

Question: And the viscosity (308.15 K, x1 = 0.8001)?
Answer: The viscosity was 1.002 ± 0.013 mPa·s.

Question: And the viscosity (308.15 K, x1 = 0.8991)?
Answer: The viscosity was 0.954 ± 0.013 mPa·s.

Question: And the viscosity (308.15 K, x1 = 1)?
Answer: The viscosity was 0.91 ± 0.012 mPa·s.

Question: And the mass density (308.15 K, x1 = 0.1011)?
Answer: Its mass density is 794.81 ± 1.6 kg/m3.

Question: And the mass density (308.15 K, x1 = 0.1989)?
Answer: Its mass density is 783.82 ± 1.6 kg/m3.

Question: And the mass density (308.15 K, x1 = 0.2998)?
Answer: Its mass density is 773.71 ± 1.6 kg/m3.

Question: And the mass density (308.15 K, x1 = 0.4001)?
Answer: The mass density was 764.91 ± 1.6 kg/m3.

Question: What about the mass density (308.15 K, x1 = 0.4994) of the same compound?
Answer: The mass density was 757.24 ± 1.5 kg/m3.

Question: What about the mass density (308.15 K, x1 = 0.6004) of the same compound?
Answer: The mass density was 750.21 ± 1.5 kg/m3.

Question: And the mass density (308.15 K, x1 = 0.6989)?
Answer: The mass density was 744.12 ± 1.5 kg/m3.

Question: And the mass density (308.15 K, x1 = 0.8001)?
Answer: Its mass density is 738.5 ± 1.5 kg/m3.

Question: What about the mass density (308.15 K, x1 = 0.8991) of the same compound?
Answer: The mass density was 733.62 ± 1.5 kg/m3.

Question: And the mass density (308.15 K, x1 = 1)?
Answer: The mass density was 729.23 ± 1.5 kg/m3.

Question: What about the viscosity (313.15 K, x1 = 0.1011) of the same compound?
Answer: The viscosity was 2.29 ± 0.031 mPa·s.

Question: What about the viscosity (313.15 K, x1 = 0.1989) of the same compound?
Answer: Its viscosity is 1.857 ± 0.025 mPa·s.

Question: What about the viscosity (313.15 K, x1 = 0.2998) of the same compound?
Answer: Its viscosity is 1.574 ± 0.021 mPa·s.

Question: And the viscosity (313.15 K, x1 = 0.4001)?
Answer: The viscosity was 1.372 ± 0.018 mPa·s.

Question: And the viscosity (313.15 K, x1 = 0.4994)?
Answer: Its viscosity is 1.226 ± 0.016 mPa·s.

Question: What about the viscosity (313.15 K, x1 = 0.6004) of the same compound?
Answer: Its viscosity is 1.106 ± 0.015 mPa·s.

Question: What about the viscosity (313.15 K, x1 = 0.6989) of the same compound?
Answer: The viscosity was 0.996 ± 0.013 mPa·s.

Question: What about the viscosity (313.15 K, x1 = 0.8001) of the same compound?
Answer: Its viscosity is 0.927 ± 0.012 mPa·s.

Question: What about the viscosity (313.15 K, x1 = 0.8991) of the same compound?
Answer: Its viscosity is 0.886 ± 0.012 mPa·s.

Question: And the viscosity (313.15 K, x1 = 1)?
Answer: The viscosity was 0.847 ± 0.011 mPa·s.

Question: And the mass density (313.15 K, x1 = 0.1011)?
Answer: Its mass density is 791.12 ± 1.6 kg/m3.

Question: And the mass density (313.15 K, x1 = 0.1989)?
Answer: The mass density was 780.08 ± 1.6 kg/m3.

Question: And the mass density (313.15 K, x1 = 0.2998)?
Answer: The mass density was 769.94 ± 1.6 kg/m3.

Question: And the mass density (313.15 K, x1 = 0.4001)?
Answer: The mass density was 761.13 ± 1.5 kg/m3.

Question: What about the mass density (313.15 K, x1 = 0.4994) of the same compound?
Answer: The mass density was 753.45 ± 1.5 kg/m3.

Question: And the mass density (313.15 K, x1 = 0.6004)?
Answer: The mass density was 746.41 ± 1.5 kg/m3.

Question: What about the mass density (313.15 K, x1 = 0.6989) of the same compound?
Answer: The mass density was 740.32 ± 1.5 kg/m3.

Question: And the mass density (313.15 K, x1 = 0.8001)?
Answer: Its mass density is 734.71 ± 1.5 kg/m3.

Question: And the mass density (313.15 K, x1 = 0.8991)?
Answer: Its mass density is 729.84 ± 1.5 kg/m3.

Question: And the mass density (313.15 K, x1 = 1)?
Answer: Its mass density is 725.53 ± 1.5 kg/m3.

Question: What about the viscosity (318.15 K, x1 = 0.1011) of the same compound?
Answer: Its viscosity is 2.02 ± 0.027 mPa·s.

Question: What about the viscosity (318.15 K, x1 = 0.1989) of the same compound?
Answer: The viscosity was 1.664 ± 0.022 mPa·s.

Question: And the viscosity (318.15 K, x1 = 0.2998)?
Answer: The viscosity was 1.437 ± 0.019 mPa·s.

Question: What about the viscosity (318.15 K, x1 = 0.4001) of the same compound?
Answer: The viscosity was 1.245 ± 0.017 mPa·s.

Question: And the viscosity (318.15 K, x1 = 0.4994)?
Answer: The viscosity was 1.1 ± 0.015 mPa·s.

Question: What about the viscosity (318.15 K, x1 = 0.6004) of the same compound?
Answer: The viscosity was 1.008 ± 0.014 mPa·s.

Question: What about the viscosity (318.15 K, x1 = 0.6989) of the same compound?
Answer: The viscosity was 0.921 ± 0.012 mPa·s.

Question: And the viscosity (318.15 K, x1 = 0.8001)?
Answer: Its viscosity is 0.861 ± 0.012 mPa·s.

Question: What about the viscosity (318.15 K, x1 = 0.8991) of the same compound?
Answer: The viscosity was 0.822 ± 0.011 mPa·s.

Question: And the viscosity (318.15 K, x1 = 1)?
Answer: Its viscosity is 0.79 ± 0.011 mPa·s.

Question: What about the mass density (318.15 K, x1 = 0.1011) of the same compound?
Answer: The mass density was 787.39 ± 1.6 kg/m3.

Question: What about the mass density (318.15 K, x1 = 0.1989) of the same compound?
Answer: Its mass density is 776.31 ± 1.6 kg/m3.

Question: What about the mass density (318.15 K, x1 = 0.2998) of the same compound?
Answer: The mass density was 766.14 ± 1.6 kg/m3.

Question: And the mass density (318.15 K, x1 = 0.4001)?
Answer: The mass density was 757.31 ± 1.5 kg/m3.

Question: And the mass density (318.15 K, x1 = 0.4994)?
Answer: The mass density was 749.63 ± 1.5 kg/m3.

Question: And the mass density (318.15 K, x1 = 0.6004)?
Answer: Its mass density is 742.59 ± 1.5 kg/m3.

Question: And the mass density (318.15 K, x1 = 0.6989)?
Answer: The mass density was 736.5 ± 1.5 kg/m3.

Question: What about the mass density (318.15 K, x1 = 0.8001) of the same compound?
Answer: Its mass density is 730.9 ± 1.5 kg/m3.

Question: What about the mass density (318.15 K, x1 = 0.8991) of the same compound?
Answer: Its mass density is 726.05 ± 1.5 kg/m3.

Question: What about the mass density (318.15 K, x1 = 1) of the same compound?
Answer: The mass density was 721.82 ± 1.5 kg/m3.

Question: And the viscosity (323.15 K, x1 = 0.1011)?
Answer: The viscosity was 1.799 ± 0.024 mPa·s.

Question: What about the viscosity (323.15 K, x1 = 0.1989) of the same compound?
Answer: The viscosity was 1.528 ± 0.02 mPa·s.

Question: What about the viscosity (323.15 K, x1 = 0.2998) of the same compound?
Answer: Its viscosity is 1.301 ± 0.017 mPa·s.

Question: What about the viscosity (323.15 K, x1 = 0.4001) of the same compound?
Answer: Its viscosity is 1.136 ± 0.015 mPa·s.

Question: What about the viscosity (323.15 K, x1 = 0.4994) of the same compound?
Answer: The viscosity was 1.011 ± 0.014 mPa·s.

Question: And the viscosity (323.15 K, x1 = 0.6004)?
Answer: The viscosity was 0.931 ± 0.012 mPa·s.

Question: What about the viscosity (323.15 K, x1 = 0.6989) of the same compound?
Answer: The viscosity was 0.853 ± 0.011 mPa·s.

Question: What about the viscosity (323.15 K, x1 = 0.8001) of the same compound?
Answer: Its viscosity is 0.801 ± 0.011 mPa·s.

Question: What about the viscosity (323.15 K, x1 = 0.8991) of the same compound?
Answer: Its viscosity is 0.773 ± 0.01 mPa·s.

Question: And the viscosity (323.15 K, x1 = 1)?
Answer: Its viscosity is 0.74 ± 0.01 mPa·s.
